The source of these data is ChEMBL document CHEMBL1201862, “PubChem BioAssay data set” (2004).

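Tested at 5 concentrations; 48 h exposure; 96-well plates; endpoints linearly interpolated, else capped at highest concentration. GI50 = concentration required for 50% inhibition of growth.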 Activity calls are given as the source filed them. Rule as the data show it: active = GI50 up to about 1.1 µM and inactive = higher. A value given as a limit tells only on which side of the number the result lay.

Test systems include CCRF-CEM; COLO 205; HL-60; HOP-62; HOP-92; KM12; M14; NCI-H460; NCI-H522; OVCAR-3; OVCAR-8; SF-539; SK-MEL-2; SNB-19; SNB-75; U-251; UACC-62; SR.
Holding throughout (assay): growth of human tumour cells (NCI), 48 h

As for `O=S1(=O)[C@H](c2ccccc2)c2c(-c3ccccc3)sc(-c3ccccc3)c2[C@@H]1c1ccccc1`, the GI50 in the assay on CCRF-CEM is > 100 µM (inactive); in the assay on COLO 205, > 100 µM (inactive); in the assay on HL-60 it was > 100 µM (inactive); in the assay on HOP-62, > 100 µM (inactive); in the assay with HOP-92, 27 µM (inactive); with KM12, > 100 µM (inactive). The GI50 in the assay with M14 was > 100 µM (inactive); with NCI-H460, > 100 µM (inactive); in the assay with NCI-H522 it was 13 µM (inactive); with OVCAR-3, > 100 µM (inactive); with OVCAR-8, > 100 µM (inactive); with SF-539 it was > 100 µM (inactive). For the same compound, the GI50 was > 100 µM (inactive) in the assay on SK-MEL-2; > 100 µM (inactive) in the assay with SNB-19; 26.1 µM (inactive) in the assay on SNB-75; > 100 µM (inactive) in the assay on U-251; > 100 µM (inactive) in the assay on UACC-62.

Take `Cc1ccc(NC(=O)C(=O)C(C(=O)c2ccc3ccccc3c2)C2OC(=O)c3ccccc32)c(C)c1` (stereo not given): the GI50 in the assay with CCRF-CEM was 8.55 µM (inactive); in the assay with COLO 205, 11.1 µM (inactive); with HOP-62 it was 6.12 µM (inactive); in the assay with HOP-92 it was 7.03 µM (inactive); in the assay with KM12, 16.4 µM (inactive); with M14, 14.7 µM (inactive). Also, the GI50 was 5.57 µM (inactive) in the assay on NCI-H460; 12.8 µM (inactive) with NCI-H522; 9.38 µM (inactive) in the assay with OVCAR-3; 7.67 µM (inactive) in the assay on OVCAR-8; 4.84 µM (inactive) in the assay with SF-539; 13 µM (inactive) in the assay with SK-MEL-2. The GI50 in the assay with SNB-19 is 4.37 µM (inactive); with SNB-75 it was 9.14 µM (inactive); in the assay on U-251, 3.64 µM (inactive); in the assay on UACC-62 it was 4.54 µM (inactive).

Turning to `O=Cc1c(O)c(C(=O)Nc2ccc3[nH]c(=O)[nH]c3c2)cc2ccccc12`, the GI50 in the assay with CCRF-CEM, with COLO 205, with HL-60, with HOP-62, with HOP-92 and in the assay on KM12 was > 100 µM (inactive) throughout. Also, the GI50 in the assay with M14, with NCI-H460, in the assay with NCI-H522, with OVCAR-3, in the assay on OVCAR-8 and in the assay on SF-539 was > 100 µM (inactive) in each case. Also, the GI50 with SK-MEL-2, in the assay with SNB-19, in the assay on SNB-75, in the assay on U-251 and with UACC-62 was > 100 µM (inactive) throughout.

For `C=C(C)C12CC3CC(/C(=N/O)C(C1)/C3=N\O)[C@@]2(C)O` (stereo not given in full), the GI50 with CCRF-CEM, with COLO 205, with HL-60, in the assay on HOP-62, in the assay on M14 and with NCI-H460 was > 100 µM (inactive) in each case. For the same compound, the GI50 in the assay on NCI-H522, with OVCAR-3, with OVCAR-8, in the assay with SF-539, with SK-MEL-2 and with SNB-19 was > 100 µM (inactive) throughout. Further, the GI50 with SNB-75 was 93.8 µM (inactive); with SR, > 100 µM (inactive); in the assay with U-251, > 100 µM (inactive); in the assay with UACC-62, > 100 µM (inactive).

On to `COc1ccc(-c2oc(/C=N/NC(N)=S)c([N+](=O)[O-])c2-c2ccc(OC)c(OC)c2)cc1OC`, for which the GI50 was > 10 µM (inactive) in the assay with CCRF-CEM; > 100 µM (inactive) with COLO 205; 21.7 µM (inactive) in the assay with HL-60; 28 µM (inactive) in the assay with HOP-62; 24.2 µM (inactive) in the assay on HOP-92; 20.7 µM (inactive) in the assay with M14. Besides, the GI50 in the assay on NCI-H522 is 23.6 µM (inactive); in the assay with OVCAR-3, 16.7 µM (inactive); in the assay with OVCAR-8 it was 23.9 µM (inactive); in the assay on SF-539, 25.4 µM (inactive); in the assay on SK-MEL-2, 15.3 µM (inactive); in the assay with SNB-19 it was 36.1 µM (inactive). For the same compound, the GI50 in the assay with SNB-75 is 18 µM (inactive); with UACC-62 it was 20.1 µM (inactive).

Take `COc1cc(C(=O)C/C(CCCC(=O)Nc2ccccc2[N+](=O)[O-])=N/NC(=O)c2cc3ccccc3cc2O)ccc1O`: the GI50 is 8 µM (inactive) in the assay on CCRF-CEM; 21.7 µM (inactive) with COLO 205; 0.556 µM (active) with HL-60; 94.8 µM (inactive) in the assay with HOP-62; 32.7 µM (inactive) in the assay with HOP-92; 24.5 µM (inactive) with KM12. Also, the GI50 in the assay on M14 was 20.8 µM (inactive); in the assay on NCI-H460, 40.6 µM (inactive); in the assay on NCI-H522, 36.6 µM (inactive); with OVCAR-3 it was 16.1 µM (inactive); with OVCAR-8, 26.8 µM (inactive); in the assay with SF-539, 37.9 µM (inactive). Further, the GI50 with SK-MEL-2 was > 42.7 µM (inactive); in the assay on SNB-19 it was > 80.2 µM (inactive); in the assay on SNB-75 it was > 91.2 µM (inactive); in the assay on U-251, 52.1 µM (inactive); with UACC-62, 17.6 µM (inactive).

On to `O=C(c1ccc(Cl)cc1)c1ccc(OCCSCCCCCCCCCCSCCOc2ccc(C(=O)c3ccc(Cl)cc3)cc2)cc1`, for which the GI50 in the assay with CCRF-CEM, in the assay on COLO 205, with HL-60, in the assay on HOP-62, in the assay on HOP-92 and with KM12 was > 100 µM (inactive) in each case. In addition, the GI50 in the assay on NCI-H460, in the assay with NCI-H522, in the assay with OVCAR-3, in the assay on OVCAR-8, with SK-MEL-2 and in the assay with SNB-19 was > 100 µM (inactive) in each case. For the same compound, the GI50 in the assay on SNB-75, in the assay with U-251 and with UACC-62 was > 100 µM (inactive) each time.

For `C=C1C(=O)OC2CCCCC3OC3C12` (stereo not given), the GI50 in the assay on CCRF-CEM was 3.04 µM (inactive); in the assay on COLO 205 it was 3.23 µM (inactive); with HL-60, 2.79 µM (inactive); with HOP-62 it was 21.8 µM (inactive); in the assay with KM12 it was 16.6 µM (inactive); in the assay on M14 it was 7.16 µM (inactive). For the same compound, the GI50 in the assay with NCI-H460 was 14.8 µM (inactive); in the assay with NCI-H522, 1.87 µM (inactive); with OVCAR-3, 13.4 µM (inactive); with OVCAR-8, 15.9 µM (inactive); in the assay with SF-539, 11.7 µM (inactive); in the assay with SK-MEL-2, 12 µM (inactive). The GI50 was 20 µM (inactive) in the assay on SNB-19; 20.4 µM (inactive) in the assay with SNB-75; 23 µM (inactive) in the assay on SR; 10.7 µM (inactive) in the assay with U-251; 3.56 µM (inactive) in the assay on UACC-62.

Turning to `CCOC(=O)c1cccc(=O)c(C(=O)OCC)c1`, the GI50 was 27.2 µM (inactive) in the assay with CCRF-CEM; 26.6 µM (inactive) in the assay on HL-60; 33.3 µM (inactive) in the assay on HOP-62; 3.27 µM (inactive) in the assay on KM12; 81.3 µM (inactive) with M14; 80 µM (inactive) with NCI-H460. Moreover, the GI50 with OVCAR-3 is 31.3 µM (inactive); in the assay on OVCAR-8, 43.4 µM (inactive); in the assay with SF-539, 26.1 µM (inactive); in the assay with SK-MEL-2 it was 47 µM (inactive); in the assay on SNB-75, 56.9 µM (inactive); in the assay with U-251 it was 32.4 µM (inactive). Also, the GI50 in the assay with UACC-62 is 34 µM (inactive).

Take `Cc1ccc(NC2=CC(=O)C(NO)c3ccccc32)cc1` (stereo not given): the GI50 is 2.81 µM (inactive) in the assay on COLO 205; 2 µM (inactive) in the assay on HL-60; 3.39 µM (inactive) in the assay with HOP-62; 2.7 µM (inactive) in the assay with HOP-92; 3.32 µM (inactive) in the assay on KM12; 2.94 µM (inactive) in the assay with M14. The GI50 in the assay on NCI-H460 was 3.22 µM (inactive); in the assay on OVCAR-3, 0.61 µM (active); with OVCAR-8, 1.63 µM (inactive); in the assay on SF-539, 3.01 µM (inactive); in the assay with SK-MEL-2, 2.23 µM (inactive); in the assay on SNB-19 it was 3.18 µM (inactive). In addition, the figures for the GI50 in the assay with SNB-75, with U-251 and in the assay on UACC-62 were 3.37 µM (inactive), 3.15 µM (inactive) and 1.51 µM (inactive), respectively.

On to `COc1cc(C(=O)C/C(CCC(=O)Nc2ccc(Cl)cc2C)=N/NC(=O)C(N)=O)ccc1O`, for which the GI50 with CCRF-CEM, in the assay with COLO 205, in the assay on HL-60, with HOP-62, in the assay with HOP-92 and with KM12 was > 100 µM (inactive) in each case. The GI50 in the assay on M14, with NCI-H460, with NCI-H522, in the assay on OVCAR-3, in the assay with OVCAR-8 and in the assay with SF-539 was > 100 µM (inactive) each time. Further, the GI50 in the assay with SK-MEL-2, with SNB-19, in the assay with U-251 and in the assay with UACC-62 was > 100 µM (inactive) each time.

On to `COC(=O)CC1CCN(C#N)CC1CC[N+](=O)[O-]` (stereo not given), for which the GI50 with CCRF-CEM, with COLO 205, in the assay on HL-60, in the assay on HOP-62, in the assay on KM12 and with M14 was > 100 µM (inactive) each time. For the same compound, the GI50 in the assay with NCI-H460, in the assay on NCI-H522, with OVCAR-3, in the assay on OVCAR-8, with SF-539 and in the assay with SK-MEL-2 was > 100 µM (inactive) in each case. The GI50 in the assay on SNB-19, in the assay on SNB-75, in the assay with SR, in the assay on U-251 and in the assay with UACC-62 was > 100 µM (inactive) throughout.
